For one test, the target named is T1, FFAR1 (Homo sapiens, UniProt O14842).
T1 construct: expressed in transfected cells
Set-up: method as in earlier work. Particulars: fine-tuning set; BindingDB; read-out: potency on target (EC50 for FFAR1); cited from earlier work.

Test [1] has as its system sEH. Set-up: method as in earlier work. The following applies: fine-tuning set; BindingDB; read-out: potency on target (IC50 for sEH); cited from earlier work.
Test [2] has as its system FXR. Set-up: method as in earlier work. Particulars: fine-tuning set; BindingDB; read-out: potency on target (EC50 for FXR); cited from earlier work.
The target of test [3] is T2, sEH (Homo sapiens, UniProt P34913).
T2 construct: His tag (inferred from HisTrap purification with imidazole elution); made in house; own inference
T2 sequence (P34913 1-555): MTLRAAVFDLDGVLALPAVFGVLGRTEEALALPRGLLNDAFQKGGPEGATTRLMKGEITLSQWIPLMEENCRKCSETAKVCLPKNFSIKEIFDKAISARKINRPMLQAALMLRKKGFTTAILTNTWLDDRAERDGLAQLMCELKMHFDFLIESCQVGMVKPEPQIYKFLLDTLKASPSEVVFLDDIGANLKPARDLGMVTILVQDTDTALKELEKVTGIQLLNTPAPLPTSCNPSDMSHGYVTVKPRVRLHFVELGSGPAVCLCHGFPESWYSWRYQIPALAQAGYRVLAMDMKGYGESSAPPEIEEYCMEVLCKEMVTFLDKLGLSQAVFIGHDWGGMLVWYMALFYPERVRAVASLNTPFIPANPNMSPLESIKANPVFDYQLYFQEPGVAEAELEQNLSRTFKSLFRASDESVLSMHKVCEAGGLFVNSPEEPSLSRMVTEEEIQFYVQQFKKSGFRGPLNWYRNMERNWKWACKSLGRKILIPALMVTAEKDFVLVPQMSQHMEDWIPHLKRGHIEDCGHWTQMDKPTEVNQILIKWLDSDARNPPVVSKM
As to the kind of experiment: sEH enzyme activity assay with fluorogenic substrate PHOME. It counts as biochemical. Particulars: mean, n ≥ 3. An excerpt: (§1) Compound 7 was originally designed with tert-butyloxy motif which was replaced by tert-butyl for improved chemical stability. The dual ligand candidates were characterized in functional assays for the targets of interest using cellular Gal4-hybrid reporter gene assays[43] to determine FXR, THRβ and PPARδ modulation and an enzyme activity assay[44] with the fluorogenic substrate PHOME to test sEH inhibition (Table 1). In vitro characterization of the CLM designed dual FXR/sEH modulators 1–3 confirmed engagement of both targets by all three compounds with sub-micromolar to low micromolar potencies. […] All designed PPARδ/sEH modulators (7–9) were confirmed as dual ligands of the intended targets. 7 emerged as remarkably potent sEH inhibitor endowed with micromolar PPARδ agonist activity.
Soluble epoxide hydrolase (sEH) was purified as described by Hahn et al.[68] and Lukin et al.[69], respectively. Protein expression was carried out in 500 ml ZYP5052 autoinduction medium containing Kanamycin (100 mg/L) with lactose uptake-dependent induction. The fermentation procedure started at 37 °C and 200 rpm until the OD600 reached approximately 1.0. Then the temperature was reduced to 16 °C. After 24–36 h the cells (OD600 ≈ 15.0) were harvested by centrifugation at 5000 × g (4 °C, 20 min). Pellets were resuspended in a resuspension buffer containing Tris (50 mM), NaCl (0.5 M) and MgCl2 (10 mM) at pH 8 and sonicated twice for 15 s on ice. The sonicated suspension was centrifuged (18,000 × g, 30 min, 4 °C) and the supernatant was ultracentrifuged (100,000 × g, 1 h 10 min, 4 °C). The ultracentrifugation supernatant was loaded on a 5 ml HisTrap® FF (GE Healthcare, München, Germany) column at a flow rate of 2 ml/min and washed with washing buffer containing Tris (50 mM), NaCl (0.5 M), MgCl2 (10 mM), imidazole (20 mM) and DTT (3 mM) at pH 8, and eluted at 120 mM imidazole. The fractions containing hsEH after SDS-PAGE fraction analysis were pooled. The identity of hsEH was confirmed by Western Blotting and hsEH hydrolase activity assay. The inhibitory potency of the compounds was determined using a fluorescence-based enzyme activity assay in which PHOME (3-phenyl-cyano(6-methoxy-2-naphthalenyl)methylester-2-oxiraneacetic acid) is metabolized by sEH hydrolase towards a fluorescent naphthalene aldehyde. Dilution series of the compounds were incubated for 30 min with recombinant sEH (final protein concentration 3 nM). Subsequently, the fluorogenic substrate PHOME at final concentration of 50 μM was added, and the fluorescence was measured every minute for 45 min using a Tecan plate reader (ex: 360 nm, em: 465 nm; bandwidth 35 nm). Inhibition in percent was plotted against the logarithmic test compound concentration and IC50-values were calculated using the “log(Inhibitor) vs. Response – Variable slope (four parameters)” equation in GraphPad Prism 7.

Test [4] has as its target T3, FXR (Homo sapiens, UniProt Q96RI1).
T3 construct: expressed in transfected cells; host or cells: HEK293T
T3 sequence (Q96RI1 262-486 limits assumed): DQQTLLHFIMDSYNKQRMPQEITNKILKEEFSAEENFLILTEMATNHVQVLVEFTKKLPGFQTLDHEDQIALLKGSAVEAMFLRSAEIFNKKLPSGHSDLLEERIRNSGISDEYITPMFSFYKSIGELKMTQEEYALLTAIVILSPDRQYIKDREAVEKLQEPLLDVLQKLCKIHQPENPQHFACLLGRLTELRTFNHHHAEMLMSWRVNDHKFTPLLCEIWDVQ
As to the kind of experiment: Gal4-hybrid reporter gene assay FXR. In kind it is cell-based. The following applies: mean, n ≥ 3. The method, then: The dual ligand candidates were characterized in functional assays for the targets of interest using cellular Gal4-hybrid reporter gene assays[43] to determine FXR, THRβ and PPARδ modulation and an enzyme activity assay[44] with the fluorogenic substrate PHOME to test sEH inhibition (Table 1).
After 24 h, the medium was changed to Opti-MEM without supplements. Transient transfection was performed using Lipofectamine LTX reagent (Invitrogen, Carlsbad, CA, USA) according to the manufacturer’s protocol with pFR-Luc (100 ng/well) as reporter plasmid, pRL-SV40 (2 ng/well) for normalization of transfection efficiency and cell growth, and one pFA-CMV-hNR-LBD clone coding for the hinge region and ligand binding domain (LBD) of the NR of interest. Five hours after transfection, the cells were incubated with Opti-MEM supplemented with penicillin (100 U/mL) and streptomycin (100 µg/mL), additionally containing 0.1% DMSO and the respective test compound or 0.1% DMSO alone as untreated control. After overnight (14–16 h) incubation, luminescence was measured using the Dual-Glo® Luciferase Assay System (Promega, Madison, WI, USA) according to the manufacturer’s protocol with a Tecan Spark® 10 M multimode microplate reader. Relative light units (RLU) for normalization of transfection efficiency and cell growth were calculated by dividing firefly luminescence by renilla luminescence and multiplication by 1000. Fold activation was obtained by dividing the mean RLU of a test compound at a respective concentration by the mean RLU of the untreated control. All samples were tested in duplicates in at least three biologically independent experiments. For dose response curve fitting and calculation of the EC50/IC50 values, the equation “[Agonist]/[Inhibitor] vs. response – Variable slope (four parameters)” was used in GraphPad Prism 7.
A general note: A reporter such as luciferase makes a cellular process visible.

A further test concerns the target T4, THRβ (Homo sapiens, UniProt P10828).
T4 construct: expressed in transfected cells; host or cells: HEK293T
T4 sequence (P10828 217-461 limits assumed): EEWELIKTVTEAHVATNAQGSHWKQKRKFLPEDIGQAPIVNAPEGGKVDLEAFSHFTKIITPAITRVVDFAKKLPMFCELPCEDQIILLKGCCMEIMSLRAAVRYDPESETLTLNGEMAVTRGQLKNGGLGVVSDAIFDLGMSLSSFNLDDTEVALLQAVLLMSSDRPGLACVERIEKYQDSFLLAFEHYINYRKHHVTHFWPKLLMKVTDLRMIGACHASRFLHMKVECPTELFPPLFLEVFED
As to the kind of experiment: Gal4-hybrid reporter gene assay THRβ. It counts as cell-based. The following applies: for THRβ agonism: at non-toxic concentrations.
Description: as §1
HEK293T cells (ATCC, CRL-1573) were cultured in Dulbecco’s modified eagle medium (DMEM), high glucose, supplemented with 10% FCS, sodium pyruvate (1 mM), penicillin (100 U/mL), and streptomycin (100 µg/mL) to 70–80% confluence at 37 °C and 5% CO2 and seeded in clear 96-well plates with a density of 40,000 cells/well. After 24 h, the medium was changed to Opti-MEM without supplements. Transient transfection was performed using Lipofectamine LTX reagent (Invitrogen, Carlsbad, CA, USA) according to the manufacturer’s protocol with pFR-Luc (100 ng/well) as reporter plasmid, pRL-SV40 (2 ng/well) for normalization of transfection efficiency and cell growth, and one pFA-CMV-hNR-LBD clone coding for the hinge region and ligand binding domain (LBD) of the NR of interest. Five hours after transfection, the cells were incubated with Opti-MEM supplemented with penicillin (100 U/mL) and streptomycin (100 µg/mL), additionally containing 0.1% DMSO and the respective test compound or 0.1% DMSO alone as untreated control. After overnight (14–16 h) incubation, luminescence was measured using the Dual-Glo® Luciferase Assay System (Promega, Madison, WI, USA) according to the manufacturer’s protocol with a Tecan Spark® 10 M multimode microplate reader. Relative light units (RLU) for normalization of transfection efficiency and cell growth were calculated by dividing firefly luminescence by renilla luminescence and multiplication by 1000. Fold activation was obtained by dividing the mean RLU of a test compound at a respective concentration by the mean RLU of the untreated control. All samples were tested in duplicates in at least three biologically independent experiments. For dose response curve fitting and calculation of the EC50/IC50 values, the equation “[Agonist]/[Inhibitor] vs. response – Variable slope (four parameters)” was used in GraphPad Prism 7. The following pFA-CMV-hNR-LBD clones and reference ligands were used: THRβ (pFA-CMV-hTHRβ-LBD[71], 1 µM T3), PPARδ (pFA-CMV-hPPARδ-LBD[72], 1 µM L-165,041), FXR (pFA-CMV-hFXR-LBD[73], 1 µM GW4064).

[5] abbreviates: Gal4-hybrid reporter gene assay, mean, n ≥ 3.

T1 sequence (O14842 whole entry): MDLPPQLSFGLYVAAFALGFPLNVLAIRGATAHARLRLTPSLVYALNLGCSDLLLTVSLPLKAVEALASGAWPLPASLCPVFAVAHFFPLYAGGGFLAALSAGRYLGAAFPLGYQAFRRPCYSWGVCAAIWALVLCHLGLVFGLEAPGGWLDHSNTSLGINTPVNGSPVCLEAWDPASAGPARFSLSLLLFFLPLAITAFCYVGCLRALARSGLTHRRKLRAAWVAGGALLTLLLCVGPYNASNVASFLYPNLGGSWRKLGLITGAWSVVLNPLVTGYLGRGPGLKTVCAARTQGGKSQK

The term EC50 denotes the concentration at which the effect is half-maximal. In the case of `CCOC(CC(=O)O)c1ccc(OC2CCc3c(Cl)cccc32)cc1` (stereo not shown), at FFAR1, the EC50 was 5 nM.

As for `COc1ccc(F)c(C2CCC(COc3cccc(C(C4CC4)C(C)C(=O)O)c3)CC2)c1` (stereo not shown), the EC50 on FFAR1 was 2 nM.

The term IC50 denotes the midpoint of a concentration-inhibition curve. As to `O=C(O)CCc1ccc(OC2CCN(C(=O)NC3C(c4ccccc4)C3c3ccccc3)CC2)cc1` (stereo not shown), in the test with sEH [1], the IC50 is 2 nM.

For `CC(C)n1nc(C(=O)O)cc1C1CC1c1ccc(OCc2c(-c3c(Cl)cccc3Cl)noc2C2CC2)cc1Cl` (stereo not shown), the EC50 in the test on FXR [2] is 4 nM.

Consider `O=C(Nc1ccc(OC(F)(F)F)cc1)NC1CCC(Oc2ccc(C(=O)O)cc2)CC1` (stereo not shown), for which the IC50 with sEH [1] was […].

With `O=C(O)c1ccc2nc(N3CCCC(OCc4c(-c5ccccc5OC(F)(F)F)noc4C4CC4)CC3)sc2c1` (stereo not shown), the EC50 in the test on FXR [2] was 7 nM.

`Cc1cccc(C)c1OCc1noc(C(C)C)c1COc1ccc(C=Cc2cccc(C(=O)O)c2)c(Cl)c1`: the concentration giving a half-maximal response (EC50) with FXR [2] was 56 nM.

In turn, `O=C(O)c1ccc(CNC(=O)c2ccc(-c3ccccc3)cc2)cc1` [Compound 2] showed an IC50 against sEH [3] of 8100 nM. This molecule also yielded an EC50 at FXR [4] of 440 nM.

`CC(C)c1onc(-c2c(Cl)cccc2Cl)c1COc1ccc(C(=O)O)cc1` [Compound 4]: the “THRβ: activity” value at THRβ (setting [5]) is “inactive”. Further, the THRβ agonism result on THRβ is listed as “no detectable”.

Turning to `CC(C)c1noc(C2CCN(C(=O)NC3CC3c3ccccc3)CC2)n1` (stereo not shown), in the test with sEH [1], the 50% inhibitory concentration (IC50) was 6 nM.

Regarding `COc1ccc(CNc2c(-c3cc(Cl)ccn3)nc3ccc(Cl)cn23)cc1`, the EC50 in the test with FXR [2] was 0.3 nM.

Regarding `O=C(O)c1ccc(-c2ccc(C(=O)NCc3c(Cl)cccc3Cl)cc2)cc1` [Compound 3], the IC50 against sEH [3] is 21000 nM. Moreover, the “FXR: fold act. at 50 µM” value on FXR [4] (at 50 µM) turned out to be 3.4 fold.

In the case of `CN(Cc1cccc(C(=O)O)c1)c1ccc(OCc2c(-c3c(Cl)cccc3Cl)noc2C2CC2)nc1C(F)(F)F`, the EC50 in the test on FXR [2] is 9 nM.

With `O=C(NCc1ccc(Br)cc1OC(F)(F)F)c1ccc(OCCC(F)(F)F)nc1`, the IC50 in the test with sEH [1] is 12 nM.

As to `CC#CC(CC(=O)O)c1ccc(OCc2cccc(CN(Cc3ccsc3)C3CCOCC3)c2)cc1` (stereo not shown), the EC50 at FFAR1 was 8 nM.

As for `CC(C)c1onc(-c2c(Cl)cccc2Cl)c1COc1ccc2sc(-c3cccc(C(=O)O)c3)cc2c1`, in the test with FXR [2], the EC50 was 32 nM.

As for `CC(C)c1onc(-c2c(Cl)cccc2Cl)c1COc1ccc(CC(=O)O)cc1` [Compound 5], the response on FXR [4] was half-maximal at 11000 nM (EC50). The “THRβ: activity” value on THRβ (setting [5]) is “inactive”. Moreover, at THRβ, the THRβ agonism result was “no detectable”.

The molecule `CC(C)(C)c1ccc(CNC(=O)c2ccc(C(=O)O)cc2)cc1` [Compound 1] yielded an IC50 at sEH [3] of 4100 nM. This molecule had an EC50 on FXR [4] of 370 nM.

On to `CC(C)(C)N1CCOC(COc2ccc(NC(=O)NC3CCCCC3)cc2)C1` (stereo not shown), for which the IC50 with sEH [1] is 77 nM.

With `CC(C)c1onc(-c2c(Cl)cccc2Cl)c1COc1ccc(Cc2ccc(OCC(=O)O)cc2)cc1` [Compound 6], the EC50 at FXR [4] came out at 1000 nM. The “THRβ: fold act. at 15 µM” value at THRβ (Gal4-hybrid reporter gene assay, at 15 µM, mean, n ≥ 3) came out at 5 fold. Besides, the THRβ agonism entry at THRβ is “weak”.

For the molecule `CC#CC(CC(=O)O)c1ccc(NC(=O)C(=O)Nc2cccc(C(C)(C)C)c2)cc1` (stereo not shown), the EC50 at FFAR1 is 4 nM.

In the case of `CC(C(=O)O)C(c1ccc2c(c1)OC(C1CCN(C(C)c3cc(F)ccc3OC(F)(F)F)CC1)CC2)C1CC1` (stereo not shown), the EC50 on FFAR1 was 2 nM.

Turning to `CC(C)c1cnn(-c2c(Cl)cccc2Cl)c1COc1ccc(C=Cc2cccc(C(=O)O)c2)c(Cl)c1`, the EC50 in the test on FXR [2] was 20 nM.
